Experiments:
A-549 = experiment: SRB assay, lung cancer cell line A-549; type: cell-based; conditions: Homo sapiens, A549, 48 h, read-out: In vitro anticancer activity GI50, Lung A-549
Protocol: (§1) Single cell suspension of the tumour cells grown in tissue culture were made, cells counted and cell count adjusted to 1×10^5 to 5×10^5 cells/ml. Ninety six (96) well plates were seeded with this cell suspension, each well receiving 100 μl of it. The plate was then be incubated at 37° C. temperature in CO2 incubator for 24 hours. Drugs were added at concentrations after 24-hour incubation followed by further incubation for 48 hours. Experiment was terminated by gently layering the cells in the wells with 30% TCA and plates were kept in refrigerator for 1 hour following which they were washed thoroughly with tap water, dried attained with 0.4% SRB in 1% acetic aid and finally, the bound SRB eluted with 10 mM tris. Absorbance was read at 540 nm, in the microtitre-plate reader. Optical density of drug-treated cells was compared with that of control cells and cell inhibition was calculated as percent values. Each compound was tested at 10, 20, 40 and 80 μg/ml in triplicate on human malignant cell lines.

Hop62 = experiment: SRB assay, lung cancer cell line Hop62; type: cell-based; conditions: Homo sapiens, HOP-62, 48 h, read-out: In vitro anticancer activity GI50, Lung Hop62
Protocol: as §1

A-2780 = experiment: SRB assay, ovarian cancer cell line A-2780; type: cell-based; conditions: Homo sapiens, A2780, 48 h, read-out: In vitro anticancer activity GI50, Ovarian A-2780
Protocol: as §1

Gurav = experiment: SRB assay, oral cancer cell line Gurav; type: cell-based; conditions: Homo sapiens, 48 h, read-out: In vitro anticancer activity GI50, Oral Gurav
Protocol: as §1

DWD = experiment: SRB assay, oral cancer cell line DWD; type: cell-based; conditions: Homo sapiens, 48 h, read-out: In vitro anticancer activity GI50, Oral DWD
Protocol: as §1

MCF7 = experiment: SRB assay, breast cancer cell line MCF7; type: cell-based; conditions: Homo sapiens, MCF7, 48 h, read-out: In vitro anticancer activity GI50, Breast MCF7
Protocol: as §1

Zr-75-1 = experiment: SRB assay, breast cancer cell line Zr-75-1; type: cell-based; conditions: Homo sapiens, ZR-75-1, 48 h, read-out: In vitro anticancer activity GI50, Breast Zr-75-1
Protocol: as §1

KB = experiment: SRB assay, oral cancer cell line KB; type: cell-based; conditions: Homo sapiens, 48 h, read-out: In vitro anticancer activity GI50, Oral KB
Protocol: as §1

Colo205 = experiment: SRB assay, colon cancer cell line Colo205; type: cell-based; conditions: Homo sapiens, COLO 205, 48 h, read-out: In vitro anticancer activity GI50, Colon Colo205
Protocol: as §1

Row | SMILES | GI50 (A-549) [nM] | melting point [°C] | GI50 (Hop62) [nM] | GI50 (A-2780) [nM] | GI50 (Gurav) [nM] | GI50 (DWD) [nM] | GI50 (MCF7) [nM] | GI50 (Zr-75-1) [nM] | GI50 (KB) [nM] | GI50 (Colo205) [nM]
1 | COc1cc(/C=C(/C(=O)N[C@@H]2c3cc4c(cc3[C@@H](c3cc(OC)c(OC)c(OC)c3)[C@H]3C(=O)OC[C@@H]32)OCO4)c2cc(OC)c(OC)c(OC)c2)ccc1O [Compound 3a, 4β-(E)-3-(4-hydroxy-3-methoxyphenyl)-2-(3,4,5-trimethoxyphenyl)acrylamidopodophyllotoxin] | 2400 | 134 to 137 | 2500 | – | – | – | – | – | – | –
2 | COc1cc(/C(=C\c2cccc([N+](=O)[O-])c2)C(=O)N[C@@H]2c3cc4c(cc3[C@@H](c3cc(OC)c(OC)c(OC)c3)[C@H]3C(=O)OC[C@@H]32)OCO4)cc(OC)c1OC [Compound 3j, 4β-(E)-3-(3-nitrophenyl)-2-(3,4,5-trimethoxyphenyl)acrylamido podophyllotoxin] | 2400 | 181 to 184 | 170 | 2500 | 2100 | < 100 | 2700 | – | – | –
3 | COc1cc(/C(=C\c2ccc(O)cc2)C(=O)N[C@@H]2c3cc4c(cc3[C@@H](c3cc(OC)c(OC)c(OC)c3)[C@H]3C(=O)OC[C@@H]32)OCO4)cc(OC)c1OC [Compound 3p, 4β-(E)-3-(4-hydroxyphenyl)-2-(3,4,5-trimethoxyphenyl)acrylamidopodophyllotoxin] | 2300 | 137 to 140 | 2600 | – | 2700 | 2700 | – | 2700 | 2600 | –
4 | COc1ccccc1/C(=C\c1ccccc1[N+](=O)[O-])C(=O)N[C@@H]1c2cc3c(cc2[C@@H](c2cc(OC)c(OC)c(OC)c2)[C@H]2C(=O)OC[C@@H]21)OCO3 [Compound 3m, 4β-(E)-2-(2-methoxyphenyl)-3-(2-nitrophenyl)acrylamidopodophyllotoxin] | < 100 | 187 to 190 | 2100 | 2200 | 2200 | 2300 | 2800 | 2200 | 2500 | –
5 | COc1ccc(/C=C(/C(=O)N[C@@H]2c3cc4c(cc3[C@@H](c3cc(OC)c(OC)c(OC)c3)[C@H]3C(=O)OC[C@@H]32)OCO4)c2cc(OC)c(OC)c(OC)c2)cc1O [Compound 3b, 4β-(E)-3-(3-hydroxy-4-methoxyphenyl)-2-(3,4,5-trimethoxyphenyl)acrylamido podophyllotoxin] | 2900 | 145 to 147 | 2900 | – | – | – | – | – | – | –
6 | COc1cc(/C(=C\c2ccc([N+](=O)[O-])cc2)C(=O)N[C@@H]2c3cc4c(cc3[C@@H](c3cc(OC)c(OC)c(OC)c3)[C@H]3C(=O)OC[C@@H]32)OCO4)cc(OC)c1OC [Compound 3i, 4β-(E)-3-(4-nitrophenyl)-2-(3,4,5-trimethoxyphenyl)acrylamidopodophyllotoxin] | – | 187 to 190 | 2700 | 2600 | 2100 | 2400 | – | 2200 | – | 2100
7 | COc1cc(/C=C(/C(=O)N[C@@H]2c3cc4c(cc3[C@@H](c3cc(OC)c(OC)c(OC)c3)[C@H]3C(=O)OC[C@@H]32)OCO4)c2cc(OC)c(OC)c(OC)c2)ccc1F [Compound 3c, 4β-(E)-3-(4-fluoro-3-methoxyphenyl)-2-(3,4,5-trimethoxyphenyl)acrylamidopodophyllotoxin] | – | 144 to 146 | 2500 | – | 2400 | – | – | 2200 | – | –
8 | COc1ccc(/C=C(/C(=O)N[C@@H]2c3cc4c(cc3[C@@H](c3cc(OC)c(OC)c(OC)c3)[C@H]3C(=O)OC[C@@H]32)OCO4)c2cc(OC)c(OC)c(OC)c2)cc1[N+](=O)[O-] [Compound 3h, 4β-(E)-3-(4-methoxy-3-nitrophenyl)-2-(3,4,5-trimethoxyphenyl)acrylamidopodophyllotoxin] | – | 140 to 143 | 2300 | 2500 | 2600 | 2900 | – | 2200 | – | 2700
9 | COc1cc(/C(=C\c2ccccc2[N+](=O)[O-])C(=O)N[C@@H]2c3cc4c(cc3[C@@H](c3cc(OC)c(OC)c(OC)c3)[C@H]3C(=O)OC[C@@H]32)OCO4)cc(OC)c1OC [Compound 3k, 4β-(E)-3-(2-nitrophenyl)-2-(3,4,5-trimethoxyphenyl)acrylamidopodophyllotoxin] | 2500 | 197 to 200 | 2700 | 2300 | – | – | – | 2500 | 2700 | –
10 | COc1ccccc1/C(=C\c1ccc([N+](=O)[O-])cc1)C(=O)N[C@@H]1c2cc3c(cc2[C@@H](c2cc(OC)c(OC)c(OC)c2)[C@H]2C(=O)OC[C@@H]21)OCO3 [Compound 3l, 4β-(E)-2-(2-methoxyphenyl)-3-(4-nitrophenyl)acrylamidopodophyllotoxin] | < 100 | 181 to 183 | 2000 | 2300 | 2100 | 2300 | 2700 | 2100 | 2400 | –
11 | COc1ccc(/C=C(/C(=O)N[C@@H]2c3cc4c(cc3[C@@H](c3cc(OC)c(OC)c(OC)c3)[C@H]3C(=O)OC[C@@H]32)OCO4)c2cc(OC)c(OC)c(OC)c2)cc1 [Compound 3n, 4β-(E)-3-(4-methoxyphenyl)-2-(3,4,5-trimethoxyphenyl)acrylamidopodophyllotoxin] | – | 128 to 130 | – | 2500 | 2200 | 2300 | 2900 | 2900 | – | 170
12 | COc1ccc(/C=C(/C(=O)N[C@@H]2c3cc4c(cc3[C@@H](c3cc(OC)c(OC)c(OC)c3)[C@H]3C(=O)OC[C@@H]32)OCO4)c2cc(OC)c(OC)c(OC)c2)c(F)c1 [Compound 3f, 4β-(E)-3-(2-fluoro-4-methoxyphenyl)-2-(3,4,5-trimethoxyphenyl)acrylamidopodophyllotoxin] | 2100 | 123 to 125 | 170 | 2700 | 180 | 190 | 2400 | 2500 | 2600 | –
13 | COc1cccc(/C=C(/C(=O)N[C@@H]2c3cc4c(cc3[C@@H](c3cc(OC)c(OC)c(OC)c3)[C@H]3C(=O)OC[C@@H]32)OCO4)c2cc(OC)c(OC)c(OC)c2)c1 [Compound 3o, 4β-(E)-3-(3-methoxyphenyl)-2-(3,4,5-trimethoxyphenyl)acrylamidopodophyllotoxin] | < 100 | 187 to 190 | 180 | < 100 | 2100 | 2200 | 2700 | 180 | 2100 | –
14 | COc1ccc(F)c(/C=C(/C(=O)N[C@@H]2c3cc4c(cc3[C@@H](c3cc(OC)c(OC)c(OC)c3)[C@H]3C(=O)OC[C@@H]32)OCO4)c2cc(OC)c(OC)c(OC)c2)c1 [Compound 3e, 4β-(E)-3-(2-fluoro-5-methoxyphenyl)-2-(3,4,5-trimethoxyphenyl)acrylamidopodophyllotoxin] | – | 123 to 126 | – | – | 2500 | – | – | 2700 | – | –

Source: patent US8673969B2, “Substituted 4-β-acrylamidopodophyllotoxin congeners as antitumour antibiotics and the process for preparation thereof” (Council of Scientific & Industrial Research, priority 2010, dated 2014)
